Laboratory results published in ChEMBL document CHEMBL4627399, “Synthesis and Structure-Activity Relationships of 5'-Aryl-14-alkoxypyridomorphinans: Identification of a μ Opioid Receptor Agonist/δ Opioid Receptor Antagonist Ligand with Systemic Antinociceptive Activity and Diminished Opioid Side Effects” (J Med Chem, 2020).
Activity calls are given as the source filed them. The calls are words filed in the database; no cut-off is given here.

Tests used:
[1] = biological target: T1, Delta-type opioid receptor (Homo sapiens, UniProt P41143); assay: Displacement of [3H]-diprenorphine from human delta opioid receptor expressed in CHO cell membranes incubated for 1 hr by competition radioligand binding assay
[2] = biological target: T2, Kappa-type opioid receptor (Homo sapiens, UniProt P41145); assay: Displacement of [3H]-diprenorphine from human kappa opioid receptor expressed in CHO cell membranes incubated for 1 hr by competition radioligand binding assay
[3] = biological target: T1, Delta-type opioid receptor; assay: Antagonist activity at human delta opioid receptor expressed in CHO cell membranes assessed as reduction in SNC80-induced [35S]GTPgammaS binding preincubated for 5 mins followed by SNC80 addition and measured after 1 hr; type: functional
Mu-type opioid receptor [4] = biological target: T3, Mu-type opioid receptor (Homo sapiens, UniProt P35372); assay: biochemical; type: cell-based, CHO
Mu-type opioid receptor [5] = biological target: T3, Mu-type opioid receptor; assay: biochemical
[6] = biological target: T2, Kappa-type opioid receptor; assay: Agonist activity at human kappa opioid receptor expressed in CHO cell membranes incubated for 1 hr by [35S]GTPgammaS binding assay; type: functional
[7] = biological target: T2, Kappa-type opioid receptor; assay: Agonist activity at human kappa opioid receptor expressed in CHO cell membranes assessed as stimulation of [35S]GTPgammaS binding incubated for 1 hr relative to […]; type: functional
[8] = Stability in human liver microsomes at 1 uM measured up to 60 mins by LC-MS/MS analysis; type: ADME, Microsome; settings: 1 h

Row | SMILES | Ki [1] | Ki [2] | IC50 [3] | Ki (Mu-type opioid receptor [4]) | EC50 (Mu-type opioid receptor [5]) | EC50 ([6]; cho) | Emax [7] | Stability [8] | EC50 ([6]; read-out: EC50)
1 | Cc1cc(-c2cnc3c(c2)C[C@@]2(OCCCc4ccccc4)[C@H]4Cc5ccc(O)c6c5[C@@]2(CCN4CC2CC2)[C@H]3O6)ccn1 | 63.5 nM | < 0.51 nM | 0.39 nM | 1.05 nM | 1.88 nM | Not Active | inactive | Stable | –
2 | Cc1ccc(-c2cnc3c(c2)C[C@@]2(OCCCc4ccccc4)[C@H]4Cc5ccc(O)c6c5[C@@]2(CCN4CC2CC2)[C@H]3O6)cc1 | 34.4 nM | 102 nM | 3.63 nM | 191 nM | 2.31 nM | – | – | Stable | –
3 | Oc1ccc2c3c1O[C@H]1c4ncc(-c5ccccc5)cc4C[C@@]4(OCCCCc5ccccc5)[C@@H](C2)N(CC2CC2)CC[C@]314 | 14.6 nM | 57.1 nM | 66.6 nM | 92.1 nM | 24.8 nM | – | – | Stable | –
4 | Oc1ccc2c3c1O[C@H]1c4ncc(-c5ccncc5)cc4C[C@@]4(OCCCc5ccccc5)[C@@H](C2)N(CC2CC2)CC[C@]314 | 6.43 nM | 15.8 nM | 18.3 nM | 47.1 nM | 56.3 nM | Not Active | inactive | Stable | –
5 | Oc1ccc2c3c1O[C@H]1c4ncc(-c5ccc(Cl)cc5)cc4C[C@@]4(OCCCc5ccccc5)[C@@H](C2)N(CC2CC2)CC[C@]314 | – | – | – | – | – | – | – | Stable | –
6 | Oc1ccc2c3c1O[C@H]1c4ncc(-c5ccccc5)cc4C[C@@]4(OCCCC5CCCCC5)[C@@H](C2)N(CC2CC2)CC[C@]314 | 12.9 nM | 57.9 nM | 28.7 nM | 95.3 nM | 23.6 nM | – | – | Stable | 34.5 nM
7 | Oc1ccc2c3c1O[C@H]1c4ncc(-c5cncnc5)cc4C[C@@]4(OCCCc5ccccc5)[C@@H](C2)N(CC2CC2)CC[C@]314 | 5.18 nM | 24.8 nM | 0.87 nM | 47.9 nM | > 3330 nM | Not Active | inactive | Stable | –
8 | Oc1ccc2c3c1O[C@H]1c4ncc(-c5ccc(F)cc5)cc4C[C@@]4(OCCCc5ccccc5)[C@@H](C2)N(CC2CC2)CC[C@]314 | 3.42 nM | 6.69 nM | 34.5 nM | 2.33 nM | 117 nM | – | – | Stable | 56.6 nM
9 | Oc1ccc2c3c1O[C@H]1c4ncc(-c5cn[nH]c5)cc4C[C@@]4(OCCCc5ccccc5)[C@@H](C2)N(CC2CC2)CC[C@]314 | 257 nM | 29.8 nM | 0.62 nM | 121 nM | 3.29 nM | Not Active | inactive | Stable | –
10 | COc1ccccc1-c1cnc2c(c1)C[C@@]1(OCCCc3ccccc3)[C@H]3Cc4ccc(O)c5c4[C@@]1(CCN3CC1CC1)[C@H]2O5 | 29.7 nM | 126 nM | 0.79 nM | 61.9 nM | 7.18 nM | Not Active | inactive | Stable | –
11 | Oc1ccc2c3c1O[C@H]1c4ncc(-c5ccncn5)cc4C[C@@]4(OCCCc5ccccc5)[C@@H](C2)N(CC2CC2)CC[C@]314 | 22.1 nM | 30.8 nM | 0.71 nM | 66.2 nM | > 3330 nM | Not Active | inactive | Stable | –
12 | CC(=O)Nc1cccc(-c2cnc3c(c2)C[C@@]2(OCCCc4ccccc4)[C@H]4Cc5ccc(O)c6c5[C@@]2(CCN4CC2CC2)[C@H]3O6)c1 | > 3330 nM | 608 nM | – | 337 nM | – | – | – | Stable | –
13 | Cc1cc(F)ccc1-c1cnc2c(c1)C[C@@]1(OCCCc3ccccc3)[C@H]3Cc4ccc(O)c5c4[C@@]1(CCN3CC1CC1)[C@H]2O5 | 3.78 nM | 129 nM | 28.2 nM | – | – | Not Active | inactive | Stable | –
14 | CN(C)c1ccccc1-c1cnc2c(c1)C[C@@]1(OCCCc3ccccc3)[C@H]3Cc4ccc(O)c5c4[C@@]1(CCN3CC1CC1)[C@H]2O5 | 69.6 nM | 7.96 nM | 12.3 nM | 6.97 nM | 233 nM | Not Active | inactive | Stable | –
15 | Oc1ccc2c3c1O[C@H]1c4ncc(-c5ccccc5)cc4C[C@@]4(OCCCc5ccccc5)[C@@H](C2)N(CC2CC2)CC[C@]314 | 19.3 nM | 132 nM | 0.93 nM | 23.1 nM | 1.27 nM | – | – | Stable | > 3330 nM
16 | CN(C)Cc1ccccc1-c1cnc2c(c1)C[C@@]1(OCCCc3ccccc3)[C@H]3Cc4ccc(O)c5c4[C@@]1(CCN3CC1CC1)[C@H]2O5 | 14 nM | 22.7 nM | 11.7 nM | 56.4 nM | 28.9 nM | Not Active | inactive | Stable | –

Row | SMILES | Ki [1] | Ki [2] | IC50 [3] | Ki (Mu-type opioid receptor [4]) | EC50 (Mu-type opioid receptor [5]) | EC50 ([6]; cho) | Emax [7] | Stability [8] | EC50 ([6]; read-out: EC50)
17 | Oc1ccc2c3c1O[C@H]1c4ncc(-c5ccc(F)cc5F)cc4C[C@@]4(OCCCc5ccccc5)[C@@H](C2)N(CC2CC2)CC[C@]314 | 53.7 nM | 35.9 nM | 3.2 nM | 171 nM | 130 nM | – | – | Stable | –
18 | Cc1nocc1-c1cnc2c(c1)C[C@@]1(OCCCc3ccccc3)[C@H]3Cc4ccc(O)c5c4[C@@]1(CCN3CC1CC1)[C@H]2O5 | 64.5 nM | 23.1 nM | 0.68 nM | 99.3 nM | 3.46 nM | – | – | Stable | –
19 | Oc1ccc2c3c1O[C@H]1c4ncc(-n5cccc5)cc4C[C@@]4(OCCCc5ccccc5)[C@@H](C2)N(CC2CC2)CC[C@]314 | < 0.169 nM | 13.8 nM | 0.98 nM | 14.7 nM | 1.61 nM | Not Active | inactive | Stable | –
20 | Oc1ccc2c3c1O[C@H]1c4ncc(-c5ccccn5)cc4C[C@@]4(OCCCc5ccccc5)[C@@H](C2)N(CC2CC2)CC[C@]314 | 6.52 nM | 19.2 nM | 0.51 nM | 105 nM | 526 nM | – | – | Stable | –
21 | Oc1ccc2c3c1O[C@H]1c4ncc(-c5ccccc5C5CC5)cc4C[C@@]4(OCCCc5ccccc5)[C@@H](C2)N(CC2CC2)CC[C@]314 | 64.1 nM | 175 nM | 2.48 nM | 135 nM | 141 nM | – | – | Stable | –
22 | Cc1cccc(-c2cnc3c(c2)C[C@@]2(OCCCc4ccccc4)[C@H]4Cc5ccc(O)c6c5[C@@]2(CCN4CC2CC2)[C@H]3O6)c1 | 26.8 nM | 17.6 nM | < 0.169 nM | 24.4 nM | 20.6 nM | Not Active | inactive | Stable | –
23 | Oc1ccc2c3c1O[C@H]1c4ncc(-c5ccccc5)cc4C[C@@]4(OCCCC5CCOCC5)[C@@H](C2)N(CC2CC2)CC[C@]314 | 64.5 nM | 24.8 nM | < 0.17 nM | – | – | – | – | Stable | –
24 | Cc1cccc(C)c1-c1cnc2c(c1)C[C@@]1(OCCCc3ccccc3)[C@H]3Cc4ccc(O)c5c4[C@@]1(CCN3CC1CC1)[C@H]2O5 | 93.4 nM | 134 nM | 51.6 nM | 249 nM | 3.4 nM | – | – | Stable | –
25 | Oc1ccc2c3c1O[C@H]1c4ncc(-c5ccc(Br)cc5)cc4C[C@@]4(OCCCc5ccccc5)[C@@H](C2)N(CC2CC2)CC[C@]314 | 20.9 nM | 75.9 nM | < 0.51 nM | – | – | – | – | Stable | 5.52 nM
26 | Oc1ccc2c3c1O[C@H]1c4ncc(-c5ccccc5)cc4C[C@@]4(OCCCc5ccc(F)cc5)[C@@H](C2)N(CC2CC2)CC[C@]314 | 11 nM | 60.2 nM | 63.8 nM | – | – | Not Active | inactive | Stable | –
27 | COc1ccc(-c2cnc3c(c2)C[C@@]2(OCCCc4ccccc4)[C@H]4Cc5ccc(O)c6c5[C@@]2(CCN4CC2CC2)[C@H]3O6)cc1 | 30.6 nM | 140 nM | 22 nM | – | – | – | – | Stable | 2.02 nM
28 | Oc1ccc2c3c1O[C@H]1c4ncc(-c5ccc(F)c(F)c5)cc4C[C@@]4(OCCCc5ccccc5)[C@@H](C2)N(CC2CC2)CC[C@]314 | 7.52 nM | 71.2 nM | – | 370 nM | – | – | – | Stable | –
29 | Cc1ccccc1-c1cnc2c(c1)C[C@@]1(OCCCc3ccccc3)[C@H]3Cc4ccc(O)c5c4[C@@]1(CCN3CC1CC1)[C@H]2O5 | 97.2 nM | 152 nM | 14.3 nM | 235 nM | 5.53 nM | – | – | Stable | –
30 | Oc1cccc(-c2cnc3c(c2)C[C@@]2(OCCCc4ccccc4)[C@H]4Cc5ccc(O)c6c5[C@@]2(CCN4CC2CC2)[C@H]3O6)c1 | 8.37 nM | 18.1 nM | 1.28 nM | 12.9 nM | 1.12 nM | – | – | Stable | –
31 | CC(=O)Nc1ccc(-c2cnc3c(c2)C[C@@]2(OCCCc4ccccc4)[C@H]4Cc5ccc(O)c6c5[C@@]2(CCN4CC2CC2)[C@H]3O6)cc1 | 394 nM | 15.1 nM | – | 159 nM | – | – | – | Stable | –
